Where “and” joins values, the source holds several entries; their conditions need not be identical. Equal entries are not always repeated. Toxic doses and inconclusive results are not listed. Cut-off read from the data, not from the text of the source: active = T/C of 150% or more; inactive = T/C below 125%.
Test system: L1210 leukemia ip in BDF1 mice, survival T/C
Test: NCI In Vivo Anticancer Drug Screen. Data for tumor model L1210 Leukemia (intraperitoneal) in B6D2F1 (BDF1) mice
Settings: endpoint: mean survival time, higher = longer survival
Outline: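 Value reflects the ratio of survival in compound-treated mice to survival in vehicle-treated controls, with both groups carrying the same transplanted tumor.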

[1] = dose: 50.0 mg/kg/injection, schedule: Q01DX001 (ip), vehicle: carboxymethylcellulose (CMC)
[2] = dose: 100.0 mg/kg/injection, schedule: Q01DX001 (ip), vehicle: carboxymethylcellulose (CMC)
[3] = dose: 200.0 mg/kg/injection, schedule: Q01DX001 (ip), vehicle: carboxymethylcellulose (CMC)
[4] = dose: 400.0 mg/kg/injection, schedule: Q01DX001 (ip), vehicle: carboxymethylcellulose (CMC)
[5] = dose: 100.0 mg/kg/injection, schedule: Q01DX009 (ip), vehicle: saline
[6] = dose: 100.0 mg/kg/injection, schedule: Q04DX003 (ip), vehicle: saline
[7] = dose: 100.0 mg/kg/injection, schedule: Q01DX009 (ip), vehicle: Klucel (hydroxypropylcellulose) (HPC)
[8] = dose: 100.0 mg/kg/injection, schedule: Q04DX003 (ip), vehicle: Klucel (hydroxypropylcellulose) (HPC)
[9] = dose: 200.0 mg/kg/injection, schedule: Q01DX009 (ip), vehicle: Klucel (hydroxypropylcellulose) (HPC)
[10] = dose: 200.0 mg/kg/injection, schedule: Q04DX003 (ip), vehicle: Klucel (hydroxypropylcellulose) (HPC)
[11] = dose: 400.0 mg/kg/injection, schedule: Q01DX009 (ip), vehicle: Klucel (hydroxypropylcellulose) (HPC)
[12] = dose: 400.0 mg/kg/injection, schedule: Q04DX003 (ip), vehicle: Klucel (hydroxypropylcellulose) (HPC)
[13] = dose: 100.0 mg/kg/injection, schedule: Q01DX001 (ip), vehicle: saline
[14] = dose: 200.0 mg/kg/injection, schedule: Q01DX001 (ip), vehicle: saline
[15] = dose: 50.0 mg/kg/injection, schedule: Q04DX002 (ip), vehicle: Klucel (hydroxypropylcellulose) (HPC)

Measured: T/C

O=C(O)C1(Nc2ccc(-c3ccc(NC4(C(=O)O)CCCC4)cc3)cc2)CCCC1
inactive: [1] 90 % of control | [2] 90 % of control | [3] 88 % of control | [4] 88 % of control

CCOC(=O)N1c2ccccc2C=CC1C#N (configuration not stated)
inactive: dose: 44.0 mg/kg/injection, schedule: Q04DX003 (ip), vehicle: saline 108 % of control | dose: 66.0 mg/kg/injection, schedule: Q04DX003 (ip), vehicle: saline 105 % of control | [5] 93 % of control | [6] 94 % of control and 96 % of control | dose: 200.0 mg/kg/injection, schedule: Q01DX009 (ip), vehicle: saline 100 % of control | dose: 200.0 mg/kg/injection, schedule: Q04DX003 (ip), vehicle: saline 101 % of control and 102 % of control | dose: 400.0 mg/kg/injection, schedule: Q01DX009 (ip), vehicle: saline 95 % of control | dose: 400.0 mg/kg/injection, schedule: Q04DX003 (ip), vehicle: saline 102 % of control

COc1ccc2[nH]c3c(C)cc(C=O)c(C)c3c2c1
inactive: dose: 100.0 mg/kg/injection, schedule: Q01DX001 (ip), vehicle: other 101 % of control | dose: 100.0 mg/kg/injection, schedule: Q04DX003 (ip), vehicle: saline with Tween-80 102 % of control | dose: 200.0 mg/kg/injection, schedule: Q01DX001 (ip), vehicle: other 95 % of control | dose: 200.0 mg/kg/injection, schedule: Q04DX003 (ip), vehicle: saline with Tween-80 101 % of control | dose: 400.0 mg/kg/injection, schedule: Q01DX001 (ip), vehicle: other 91 % of control | dose: 400.0 mg/kg/injection, schedule: Q04DX003 (ip), vehicle: saline with Tween-80 96 % of control

CCOC(=O)C(Br)(C(=O)OCC)C(c1ccccc1)c1ccccc1
inactive: dose: 100.0 mg/kg/injection, schedule: Q01DX009 (ip), vehicle: saline with Tween-80 98 % of control | dose: 200.0 mg/kg/injection, schedule: Q01DX009 (ip), vehicle: saline with Tween-80 96 % of control | dose: 400.0 mg/kg/injection, schedule: Q01DX009 (ip), vehicle: saline with Tween-80 93 % of control

Clc1ccc(N=Nc2ccccc2)cc1
inactive: [7] 98 % of control | [8] 95 % of control | [9] 91 % of control | [10] 101 % of control | [11] 96 % of control | [12] 105 % of control

CCOC(=O)CC(=O)C1CCCCC1
inactive: [1] 95 % of control | [2] 95 % of control | [3] 97 % of control | [4] 95 % of control

C[N+](C)(C)CCOC(=O)Nc1ccc(C(c2ccc(NC(=O)OCC[N+](C)(C)C)cc2)c2ccc(NC(=O)OCC[N+](C)(C)C)cc2)cc1
inactive: dose: 0.25 mg/kg/injection, schedule: Q01DX009 (ip), vehicle: saline with Tween-80 98 % of control | dose: 0.5 mg/kg/injection, schedule: Q01DX009 (ip), vehicle: saline with Tween-80 100 % of control

CC(C)(C)NC(=O)NCc1ccco1
inactive: dose: 12.5 mg/kg/injection, schedule: Q01DX009 (ip), vehicle: Klucel (hydroxypropylcellulose) (HPC) 98 % of control | dose: 25.0 mg/kg/injection, schedule: Q01DX009 (ip), vehicle: Klucel (hydroxypropylcellulose) (HPC) 98 % of control | dose: 50.0 mg/kg/injection, schedule: Q01DX009 (ip), vehicle: Klucel (hydroxypropylcellulose) (HPC) 101 % of control

CC(=O)OC1=C(CC(C)C)C(=O)c2ccccc2C1=O
inactive: [13] 104 % of control | [14] 107 % of control | dose: 400.0 mg/kg/injection, schedule: Q01DX001 (ip), vehicle: saline 103 % of control

CCOc1ccc(CC(=O)Nc2cc([N+](=O)[O-])ccc2NCCN(CC)CC)cc1
inactive: dose: 25.0 mg/kg/injection, schedule: Q04DX003 (ip), vehicle: other 97 % of control | dose: 50.0 mg/kg/injection, schedule: Q04DX003 (ip), vehicle: other 97 % of control | dose: 100.0 mg/kg/injection, schedule: Q04DX003 (ip), vehicle: other 95 % of control and 111 % of control

CCCCOC(=O)CC(=O)OCCCC
inactive: [7] 96 % of control | [8] 88 % of control | [10] 95 % of control | [11] 86 % of control | [12] 97 % of control

CCCNC(c1ccccc1)=[N+]1CCCCC1
inactive: dose: 12.5 mg/kg/injection, schedule: Q04DX002 (ip), vehicle: saline 95 % of control | dose: 25.0 mg/kg/injection, schedule: Q04DX002 (ip), vehicle: saline 98 % of control

O=C1C(c2c[nH]c3ccccc23)=Nc2ccc(Br)cc21
inactive: dose: 50.0 mg/kg/injection, schedule: Q01DX001 (ip), vehicle: saline 104 % of control | [13] 104 % of control | [14] 106 % of control

CCCCCCC(/C=C/C=C/c1ccccc1)=N\O
inactive: [8] 96 % of control | [9] 91 % of control | [10] 90 % of control | [11] 91 % of control | [12] 98 % of control

Cc1cc(Oc2ccc(Cl)cc2NC(=O)Nc2ccc(Cl)c(Cl)c2)c(S(=O)(=O)O)cc1Cl
inactive: dose: 12.5 mg/kg/injection, schedule: Q04DX003 (ip), vehicle: saline 103 % of control | dose: 25.0 mg/kg/injection, schedule: Q01DX009 (ip), vehicle: saline 103 % of control | dose: 25.0 mg/kg/injection, schedule: Q04DX003 (ip), vehicle: saline 105 % of control | dose: 50.0 mg/kg/injection, schedule: Q01DX009 (ip), vehicle: saline 95 % of control | dose: 50.0 mg/kg/injection, schedule: Q04DX003 (ip), vehicle: saline 103 % of control | [5] 101 % of control | [6] 97 % of control

CCC(/C=C\C(C)C1CCC2C3CC=C4CC(O)CCC4(C)C3CCC12C)C(C)C (configuration not stated)
inactive: dose: 75.0 mg/kg/injection, schedule: Q01DX009 (sc), vehicle: steriod suspending solution 94 % of control | [2] 89 % of control | dose: 100.0 mg/kg/injection, schedule: Q04DX003 (sc), vehicle: steriod suspending solution 97 % of control | dose: 150.0 mg/kg/injection, schedule: Q01DX009 (sc), vehicle: steriod suspending solution 98 % of control | [3] 89 % of control | dose: 200.0 mg/kg/injection, schedule: Q04DX003 (sc), vehicle: steriod suspending solution 100 % of control | dose: 300.0 mg/kg/injection, schedule: Q01DX009 (sc), vehicle: steriod suspending solution 97 % of control | [4] 86 % of control | dose: 400.0 mg/kg/injection, schedule: Q04DX003 (sc), vehicle: steriod suspending solution 95 % of control

Cc1c([N+](=O)[O-])oc2ccc(Cl)cc12
inactive: [15] 93 % of control | [7] 100 % of control | dose: 100.0 mg/kg/injection, schedule: Q04DX002 (ip), vehicle: Klucel (hydroxypropylcellulose) (HPC) 87 % of control | [9] 91 % of control | dose: 200.0 mg/kg/injection, schedule: Q04DX002 (ip), vehicle: Klucel (hydroxypropylcellulose) (HPC) 93 % of control | [11] 95 % of control

O=C(O)CSC(=S)N1CCOCC1
inactive: dose: 100.0 mg/kg/injection, schedule: Q01DX001 (ip), vehicle: saline with Tween-80 91 % of control | dose: 200.0 mg/kg/injection, schedule: Q01DX001 (ip), vehicle: saline with Tween-80 88 % of control | dose: 400.0 mg/kg/injection, schedule: Q01DX001 (ip), vehicle: saline with Tween-80 94 % of control

S=C1SCCS1
inactive: dose: 100.0 mg/kg/injection, schedule: Q01DX009 (ip), vehicle: saline sonified 98 % of control | dose: 200.0 mg/kg/injection, schedule: Q01DX009 (ip), vehicle: saline sonified 95 % of control | dose: 400.0 mg/kg/injection, schedule: Q01DX009 (ip), vehicle: saline sonified 97 % of control

C/C(=N\O)c1ccc[n+](Cc2ccc(C)cc2)c1
inactive: dose: 9.38 mg/kg/injection, schedule: Q01DX001 (ip), vehicle: other 97 % of control | dose: 18.75 mg/kg/injection, schedule: Q01DX001 (ip), vehicle: other 97 % of control

[Cl][Pb]([Cl])([c]1ccccc1)[c]1ccccc1
inactive: dose: 12.5 mg/kg/injection, schedule: Q04DX002 (ip), vehicle: Klucel (hydroxypropylcellulose) (HPC) 88 % of control | dose: 25.0 mg/kg/injection, schedule: Q04DX002 (ip), vehicle: Klucel (hydroxypropylcellulose) (HPC) 88 % of control | [15] 91 % of control

CC(=O)Nc1ccc2ccccc2c1-c1c(NC(C)=O)ccc2ccccc12
inactive: dose: 25.0 mg/kg/injection, schedule: Q04DX002 (ip), vehicle: saline with Tween-80 97 % of control | dose: 50.0 mg/kg/injection, schedule: Q04DX002 (ip), vehicle: saline with Tween-80 90 % of control
